In patent publication US20210196672A1, “COMPOSITIONS COMPRISING 3'-O-METHYL-5-O-SULFATE EPICATECHIN AND THERAPEUTIC USES OF SUCH COMPOSITIONS” (NESTEC S.A., priority 2016, published 2021):

Test system: endothelial nitric oxide synthase
Test: eNOS phosphorylation level in isolated aortic rat rings (western blot)
Type: cell-based
Conditions: isolated thoracic aortic rings of male adult Wistar rats, 1 h incubation, relative to the control (DMSO 1%) and chemically similar epicatechins, FIG. 2
Experimental: Comparative experiments were conducted on the expression of endothelial nitric oxide synthase in isolated aortic rat rings.
Thoracic aortas were obtained from male adults Wistar rats after euthanasia. Each aorta was carefully dissected and harvested cleaned of excess tissue and cut into three equal segments, approximately 7 mm long. All aortic rings were pre-incubated for 30 min in Krebs solution (20 mM Hepes buffer, pH 7.4, containing 119 mM NaCl, 4.7 mM KCl, 1 mM MgSO4, 0.4 mM NaH2PO4, 0.15 mM Na2HPO4, 5 mM NaHCO3, 1.25 mM CaCl2, 5.5 mM glucose) aerated with 95% 02 and 5% CO2 at 37° C. and then incubated with vehicle (DMSO 1%) or the different metabolites for 1 h. Metabolites were first dissolved in DMSO 1% and tested in a final concentration […]. At the end of the incubation period aortic rings were frozen at −70° C. until the homogenate preparation. Homogenates for western blot and western blot determinations were carried out by the regular procedures and phosphorylation level of endothelial nitric oxide synthase was evaluated.

In the case of `COc1cc([C@H]2Oc3cc(O)cc(OS(=O)(=O)O)c3C[C@H]2O)ccc1O` [3′-O-methyl-5-O-sulfate epicatechin], the eNOS phosphorylation is reported as “increased eNOS phosphorylation relative to the control and chemically similar epicatechins”.
